This assay deals with T1, recombinant GSK3β enzyme (human GSK3β) (Homo sapiens, UniProt P49841).
T1 construct: FLAG (N); made in house; host or cells: Sf-21 insect cells, recombinant baculovirus (pFASTBAC1 / BAC-TO-BAC)
Description: Measurement of GSK3β inhibitory activity. In kind it is biochemical. The settings on record: glycogen synthase peptide substrate, Kinase Glo luminescence, read-out: IC50 (concentration of test compound needed for 50% inhibition of luminescent intensity), GSK3β inhibitory activity. From the text: Human GSK3β gene was cloned by a PCR method using a primer set:
prepared using human brain cDNA (Clontech; trade name: QUICK-Clone cDNA) as a template and in reference to the base sequence of GSK3β gene registered in GenBank under Accession Number NM_002093.
PCR was done according to the protocol attached to KOD plus DNA polymerase (Toyo Boseki Kabushiki Kaisha). The obtained PCR product was electrophoresed on agarose gel (1%), and 1.2 kb of DNA fragment including GSK3β gene was collected from the gel and then digested with restriction enzymes EcoR I and Sal I. The restriction enzyme-treated DNA was electrophoresed on agarose gel (1%). The obtained DNA fragment was collected, and ligated to the plasmid pFASTBAC1 (Invitrogen), which had been digested with restriction enzyme EcoR I and Sal I, to produce expression plasmid pFB-GSK3B. The base sequence of insertion fragment was confirmed to find that it corresponded to the objective sequence. In addition, virus stock BAC-GSK3B of recombinant Baculovirus was prepared using BAC-TO-BAC Baculovirus Expression System (Invitrogen).
Sf-21 cells (Invitrogen) were seeded on Sf-900 II SFM medium (Invitrogen)(150 ml) containing 10% fetal calf serum at 1×10^6 cells/ml, and cultured at 27° C. for 24 hr. The virus stock […] obtained above of recombinant Baculovirus was added by 150 μl to the obtained culture medium, and the cells were cultured for another 60 hr. The culture medium was centrifuged (3000 rpm, 10 min) to separate the cells, and the cells were washed once with PBS. The cells were suspended in 10 ml of cell lysis buffer (25 mM HEPES (pH 7.5), 1% Triton X, 130 mM sodium chloride, 1 mM EDTA, 1 mM Dithiothreitol, 25 mM β-glycerophosphate, Protease inhibitor Complete (Boehringer), 1 mM Sodium orthovanadate), treated 4 times using a homogenizer (POLYTRON) at 20000 rpm for 30 sec to disrupt the cells. The disrupted solution of cells was centrifuged (40000 rpm, 45 min.), and GSK3β was purified from the obtained supernatant using Anti-FLAG M2 Affinity Gel (Sigma Ltd.).
10 μl of ATP solution (2.5 μM ATP) was added to the obtained mixture, and the mixture was reacted at room temperature for 30 min. Kinase Glo Reagent (Promega) (50 μl) was added to the reaction solution to stop the reaction. After reaction at room temperature for 10 min, the luminescent intensity was measured using ARVO multilabel counter (PerkinElmer Life Sciences). The concentrations of the test compounds needed for 50% inhibition of luminescent intensity (IC50 value) were calculated by PRISM 3.0 (GraphPad Software).

pIC50: −log10 of the molar value.

T1 sequence (P49841 whole entry): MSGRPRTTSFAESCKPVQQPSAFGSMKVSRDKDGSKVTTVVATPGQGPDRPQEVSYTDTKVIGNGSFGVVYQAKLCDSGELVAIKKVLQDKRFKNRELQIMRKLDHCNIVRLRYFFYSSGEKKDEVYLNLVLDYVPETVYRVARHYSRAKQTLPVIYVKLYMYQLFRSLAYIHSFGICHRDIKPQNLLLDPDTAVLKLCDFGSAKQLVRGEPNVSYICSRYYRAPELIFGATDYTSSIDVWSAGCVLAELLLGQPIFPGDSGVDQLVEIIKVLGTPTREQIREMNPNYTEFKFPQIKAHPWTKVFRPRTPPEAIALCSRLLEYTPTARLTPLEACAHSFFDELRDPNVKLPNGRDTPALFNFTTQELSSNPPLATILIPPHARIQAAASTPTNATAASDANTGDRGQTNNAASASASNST

For the molecule `O=C(Nc1c[nH]nc1C(=O)NCCc1ccccc1)c1ccc(OC(F)(F)F)cc1` [Example 138, N-(2-phenylethyl)-4-{[4-(trifluoromethoxy)-benzoyl]amino}-1H-pyrazole-3-carboxamide], the pIC50 is over 7.00. To `O=C(COc1ccccc1)Nc1c[nH]nc1C(=O)NC1CCCC1` [compound 062] belongs over 7.00; to `COc1ccc(C(=O)Nc2c[nH]nc2C(=O)NCc2ccco2)cc1` [compound 155], over 7.00; to `N#CCCNC(=O)c1n[nH]cc1NC(=O)c1cccc(C#N)c1` [Example 417, N-(2-cyanoethyl)-4-(3-cyanobenzoylamino)-1H-pyrazole-3-carboxamide], over 7.00. To `CC(=O)Nc1cccc(C(=O)Nc2c[nH]nc2C(=O)NCCc2ccccc2)c1` [Example 137, 4-{[3-(acetylamino)benzoyl]amino}-N-(2-phenylethyl)-1H-pyrazole-3-carboxamide] belongs over 7.00. As for `O=C(Nc1c[nH]nc1C(=O)NC1CCCC1)c1ccc2[nH]ccc2c1` [compound 077], the figure is over 7.00; as for `O=C(Nc1c[nH]nc1C(=O)NCc1ccco1)c1ccccc1` [compound 152], over 7.00. Take `CC(C)NC(=O)c1n[nH]cc1NC(=O)COc1ccccc1` [compound 001, N-isopropyl-4-((phenoxyacetyl)amino)-1H-pyrazole-3-carboxamide]: the pIC50 is 6.57. To `O=C(Nc1c[nH]nc1C(=O)NCc1ccccc1)c1ccccc1` [Example 109, 4-(benzoylamino)-N-benzyl-1H-pyrazole-3-carboxamide] belongs over 7.00; to `O=C(Nc1c[nH]nc1C(=O)Nc1cccc(C(F)(F)F)c1)c1ccccn1` [Example 343, N-(3-(((3-(trifluoromethyl)phenyl)amino)carbonyl)-1H-pyrazol-4-yl)pyridine-2-carboxamide], over 7.00. To `COCCNC(=O)c1n[nH]cc1NC(=O)c1cccc(NC(C)=O)c1` [Example 370, 4-((3-(acetylamino)benzoyl)amino)-N-(2-methoxyethyl)-1H-pyrazole-3-carboxamide] belongs over 7.00. To `COc1ccc(C(=O)Nc2c[nH]nc2C(=O)NCCc2ccccc2)cc1` [Example 133, 4-[(4-methoxybenoyl)amino]-N-(2-phenylethyl)-1H-pyrazole-3-carboxamide] belongs over 7.00; to `CCCN(CCC)S(=O)(=O)c1ccc(C(=O)Nc2c[nH]nc2C(=O)NC2CCCC2)cc1` [compound 074], 6.52. Turning to `CC(C)NC(=O)c1n[nH]cc1NC(=O)C(c1ccccc1)c1ccccc1` [compound 019], the pIC50 is over 7.00. As for `O=C(CNC(=O)c1n[nH]cc1NC(=O)c1ccccn1)c1ccccc1` [Example 359, N-(3-(((2-oxo-2-phenylethyl)amino)carbonyl)-1H-pyrazol-4-yl)pyridine-2-carboxamide], the figure is over 7.00; as for `CC(=O)Nc1cccc(C(=O)Nc2c[nH]nc2C(=O)NCCS(C)(=O)=O)c1` [Example 382, 4-((3-(acetylamino)benzoyl)amino)-N-(2-(methylsulfonyl)ethyl)-1H-pyrazole-3-carboxamide], over 7.00; as for `O=C(NC1CCCC1)c1n[nH]cc1NC(=O)C1CCCC1` [Example 367, N-cyclopentyl-4-(cyclopentanecarbonylamino)-1H-pyrazole-3-carboxamide], over 7.00. As for `O=C(Nc1c[nH]nc1C(=O)Nc1ccccc1)c1cnccn1` [compound 098], the figure is over 7.00; as for `O=C(Nc1c[nH]nc1C(=O)NCc1ccco1)c1ccc2[nH]ccc2c1` [compound 161], over 7.00. To `CNC(=O)c1n[nH]cc1NC(=O)COc1ccccc1` [compound 004] belongs over 7.00. As for `O=C(Nc1c[nH]nc1C(=O)NCc1ccco1)c1ccc(Oc2ccccc2)cc1` [compound 157], the pIC50 is 6.85.

Regarding `Cc1ncccc1C(=O)Nc1c[nH]nc1C(=O)NC1CCCC1` [Example 363, N-(3-((cyclopentylamino)carbonyl)-1H-pyrazol-4-yl)-2-methylnicotinamide], the pIC50 is over 7.00. On to `O=C(NC1CCCC1)c1n[nH]cc1NC(=O)c1c(F)cccc1F` [Example 366, N-cyclopentyl-4-((2,6-difluorobenzoyl)amino)-1H-pyrazole-3-carboxamide], for which the pIC50 is over 7.00.

`CC(=O)Nc1c[nH]nc1C(=O)NC(C)C` [compound 017]: the pIC50 was over 7.00. To `CC(=O)Nc1cccc(C(=O)Nc2c[nH]nc2C(=O)NCC(F)(F)F)c1` [Example 375, 4-((3-(acetylamino)benzoyl)amino)-N-(2,2,2-trifluoroethyl)-1H-pyrazole-3-carboxamide] belongs over 7.00; to `O=C(Nc1c[nH]nc1C(=O)NCc1ccccc1)c1ccc(OC(F)(F)F)cc1` [Example 117, N-benzyl-4-{[4-(trifluoromethoxy)benzoyl]-amino}-1H-pyrazole-3-carboxamide], 6.80; to `COCCNC(=O)c1n[nH]cc1NC(=O)c1ccccn1` [Example 356, N-(3-(((2-methoxyethyl)amino)carbonyl)-1H-pyrazol-4-yl)pyridine-2-carboxamide], over 7.00. To `O=C(CCc1ccccc1)Nc1c[nH]nc1C(=O)NCc1ccco1` [Example 149, N-(2-furylmethyl)-4-[(3-phenylpropanoyl)amino]-1H-pyrazole-3-carboxamide] belongs 6.48; to `O=C(Nc1c[nH]nc1C(=O)NCc1ccco1)c1ccc(F)cc1F` [compound 156], over 7.00; to `CNC(=O)c1n[nH]cc1NC(=O)c1ccccn1` [Example 346, N-(3-((methylamino)carbonyl)-1H-pyrazol-4-yl)pyridine-2-carboxamide], over 7.00. For the molecule `O=C(Nc1c[nH]nc1C(=O)NCc1ccco1)c1cnccn1` [compound 162], the pIC50 is over 7.00. To `CC(C)NC(=O)c1n[nH]cc1NC(=O)c1cnccn1` [compound 037] belongs over 7.00. As for `COc1ccc(C(=O)Nc2c[nH]nc2C(=O)NC(C)C)cc1` [compound 030], the figure is over 7.00; as for `O=C(Nc1c[nH]nc1C(=O)NC1CCCCC1)c1ccccn1` [Example 349, N-(3-((cyclohexylamino)carbonyl)-1H-pyrazol-4-yl)pyridine-2-carboxamide], over 7.00.

`O=C(NCCc1ccccc1)c1n[nH]cc1NC(=O)C1CCCCC1` [Example 124, 4-[(cyclohexylcarbonyl)amino]-N-(2-phenylethyl)-1H-pyrazole-3-carboxamide]: the pIC50 was over 7.00. As for `CC(C)NC(=O)c1n[nH]cc1NC(=O)C1CCCCC1` [compound 020], the pIC50 was over 7.00. As for `O=C(Nc1c[nH]nc1C(=O)NCCc1ccccc1)c1cnccn1` [Example 141], the figure is over 7.00; as for `O=C(/C=C/c1ccccc1)Nc1c[nH]nc1C(=O)N1CCCC1` [compound 045], 6.57; as for `O=C(Nc1c[nH]nc1C(=O)NC1CCc2ccccc21)c1ccccn1` (centres unmarked) [Example 340], 6.52. As for `O=C(Nc1ccccc1)c1n[nH]cc1NC(=O)C1CCCCC1` [compound 084], the figure is over 7.00; as for `CC1(C)C2CC[C@@]1(CS(=O)(=O)Nc1c[nH]nc1C(=O)NC1CCCC1)C(=O)C2` [compound 240], 6.68. Regarding `O=C(Nc1c[nH]nc1C(=O)NCc1ccco1)c1ccc(OC(F)(F)F)cc1` [compound 160], the pIC50 is 6.71. To `O=C(COc1ccccc1)Nc1c[nH]nc1C(=O)NCc1ccco1` [Example 145, N-(2-furylmethyl)-4-[(phenoxyacetyl)amino]-1H-pyrazole-3-carboxamide] belongs over 7.00.

On to `CC(C)NC(=O)c1n[nH]cc1NC(=O)c1ccccc1` [compound 027], for which the pIC50 was over 7.00. As for `CC(C)NC(=O)c1n[nH]cc1NC(=O)Cc1c[nH]c2ccccc12` [compound 026], the figure is 6.77. In the case of `CC(=O)Nc1cccc(C(=O)Nc2c[nH]nc2C(=O)NCc2ccco2)c1` [compound 159], the pIC50 is over 7.00.

With `COc1ccc(C(=O)Nc2c[nH]nc2C(=O)NCc2ccccc2)cc1` [Example 112, N-benzyl-4-[(4-methoxybenzoyl)amino]-1H-pyrazole-3-carboxamide], the pIC50 is over 7.00.

For the origin of these results see patent publication US20090156582A1, “Pyrazole Compound” (priority 2005, published 2009).
